Experimental data: ChEMBL document CHEMBL1201862, “PubChem BioAssay data set” (2004)
Calls of active or inactive are those of the source.

Tests used:
[1] = target: Multidrug resistance protein CDR2 (Candida albicans (strain SC5314 / ATCC MYA-2876) (Yeast), UniProt P78595); experiment: CaCDR2 efflux pump inhibitors in yeast, dose response, S. cerevisiae AD1-8u, singleplex, Cherry Pick1 hits (AID 588604); type: functional
Beta-galactosidase = Beta-galactosidase (Escherichia coli, UniProt Q8VNN2); experiment: Dose response counterscreen for EBI2 assay utilizing the enzyme, b-galactosidase.; type: functional
[2] = target: Benomyl/methotrexate resistance protein (Candida albicans, UniProt P28873); experiment: CaMdr1 efflux pump inhibitor potency, dose response, singleplex, Cherry Pick1 hits (AID 588608); type: functional
[3] = target: Multidrug resistance protein CDR1 (Candida albicans, UniProt P43071); experiment: CaCDR1 efflux pump inhibitors in yeast, dose response, S. cerevisiae AD1-8u, singleplex, Cherry Pick1 hits (AID 588606); type: functional
[4] = target: Serine/threonine-protein kinase PAK 1 (Homo sapiens, UniProt Q13153); type: functional
[5] = target: Serine/threonine-protein kinase pim-1 (Homo sapiens, UniProt P11309); type: functional
[6] = target: Serine/threonine-protein kinase pim-3 (Homo sapiens, UniProt Q86V86); type: functional;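 note: value obtained as one member of a broad kinase panel profiling effort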
LIM domain kinase 1 = LIM domain kinase 1 (Homo sapiens, UniProt P53667); experiment: Navigating the Kinome. Panel member name: LIMK1; type: functional
[7] = target: Interleukin-1 receptor-associated kinase 4 (Homo sapiens, UniProt Q9NWZ3); type: functional
[8] = target: Receptor-type tyrosine-protein kinase FLT3 (Homo sapiens, UniProt P36888); type: functional;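 note: FLT3 was tested as one member of a kinome-wide kinase panel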
[9] = target: RAC-gamma serine/threonine-protein kinase (Homo sapiens, UniProt Q9Y243); type: functional
Aurora kinase B = Aurora kinase B (Homo sapiens, UniProt Q96GD4); type: functional
[10] = target: Serine/threonine-protein kinase BRSK1 (Homo sapiens, UniProt Q8TDC3); type: functional;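 note: measured within a kinome-wide kinase panel, with the target listed as KIAA1811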
[11] = target: MAP kinase-interacting serine/threonine-protein kinase 2 (Homo sapiens, UniProt Q9HBH9); type: functional
[12] = target: Serine/threonine-protein kinase DCLK1 (Homo sapiens, UniProt O15075); type: functional;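 note: affinity for DCLK1 (listed as DCAMKL1) measured as one member of a kinome-wide kinase profiling panel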
[13] = target: Serine/threonine-protein kinase MRCK alpha (Homo sapiens, UniProt Q5VT25); type: functional
[14] = target: Death-associated protein kinase 3 (Homo sapiens, UniProt O43293); type: functional;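 note: measured as one member of a kinome-wide profiling panel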
[15] = target: Leucine-rich repeat serine/threonine-protein kinase 2 (Homo sapiens, UniProt Q5S007); type: functional;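 note: value from a broad kinome-wide panel profiling study in which LRRK2 was one of the kinases tested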
[16] = target: Dual specificity tyrosine-phosphorylation-regulated kinase 1A (Homo sapiens, UniProt Q13627); type: functional;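 note: measured against DYRK1A as one member of a broad kinome profiling panel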
[17] = target: Cyclin-dependent kinase 5 (Homo sapiens, UniProt Q00535); type: functional;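 note: CDK5 measured as one member of a kinase profiling panel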
[18] = target: Serine/threonine-protein kinase Nek2 (Homo sapiens, UniProt P51955); type: functional
[19] = target: Inhibitor of nuclear factor kappa-B kinase subunit epsilon (Homo sapiens, UniProt Q14164); experiment: Navigating the Kinome. Panel member name: IKBKE; type: functional
Activin receptor type-1 = Activin receptor type-1 (Homo sapiens, UniProt Q04771); experiment: Navigating the Kinome. Panel member name: ACVR1; type: functional
[20] = target: 5'-AMP-activated protein kinase catalytic subunit alpha-1 (Homo sapiens, UniProt Q13131); type: functional
[21] = target: Dual specificity protein kinase CLK4 (Homo sapiens, UniProt Q9HAZ1); type: functional
[22] = target: Cyclin-dependent kinase 8 (Homo sapiens, UniProt P49336); experiment: Navigating the Kinome. Panel member name: CDK8; type: functional
[23] = target: Tyrosine-protein kinase receptor TYRO3 (Homo sapiens, UniProt Q06418); type: functional;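 note: TYRO3 value obtained as one member of a kinome-wide profiling panel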
[24] = target: cAMP-dependent protein kinase catalytic subunit PRKX (Homo sapiens, UniProt P51817); type: functional
[25] = target: Cyclin-dependent kinase 9 (Homo sapiens, UniProt P50750); type: functional;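 note: value from the CDK9 entry of a kinome-spanning kinase panel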
[26] = target: Platelet-derived growth factor receptor alpha (Homo sapiens, UniProt P16234); experiment: Navigating the Kinome. Panel member name: PDGFRA; type: functional
[27] = target: Serine/threonine-protein kinase TBK1 (Homo sapiens, UniProt Q9UHD2); experiment: Navigating the Kinome. Panel member name: TBK1; type: functional
Aurora kinase A = Aurora kinase A (Homo sapiens, UniProt O14965); type: functional;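 note: value from the Navigating the Kinome kinase panel profiling, panel entry STK6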
[28] = target: Dual specificity tyrosine-phosphorylation-regulated kinase 1B (Homo sapiens, UniProt Q9Y463); experiment: Navigating the Kinome. Panel member name: DYRK1B; type: functional
[29] = target: Leukocyte tyrosine kinase receptor (Homo sapiens, UniProt P29376); experiment: Navigating the Kinome. Panel member name: LTK; type: functional
Paired box protein Pax-8 = Paired box protein Pax-8 (Homo sapiens, UniProt Q06710); experiment: inhibitors of PAX8-driven TPO luciferase reporter, dose response, RMG-I cells, cherry-pick (AID 687027); type: functional, cell-based;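 note: luciferase reporter driven by Pax8 target thyroperoxidase promoter measured by SteadyGlo luminescence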
[30] = cytotoxicity in COV434 cells, dose response, cytotoxicity control for PAX8 inhibitor project, cell-based, plate reader, dry powder, SA7 (AID 743145); type: functional
[31] = inhibitors of firefly luciferase expression or activity, dose response, H4 neuroglioma cells, luminescence (AID 1990); type: functional, cell-based
INS1 = experiment: beta cell apoptosis inhibitors, cytokine rescue, dose response, luminescence, retest (AID 449756); type: functional, cell-based; conditions: Rattus norvegicus, INS1;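 note: cell death triggered by IL-1 beta plus TNF-alpha plus IFN-gamma mixture; protective hits raise ATP signal compared with cytokine alone wells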
BJ [32] = experiment: cells; type: functional, cell-based; conditions: Homo sapiens
[33] = PAX2 cell-based inhibition, dose response, selectivity assay for PAX8 inhibitor project, plate reader, dry powder samples (AID 743048); type: functional;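 note: HEK293 cells carrying a WT1 promoter luciferase reporter driven by expressed Pax2; potency is for inhibition of Pax2 driven reporter signal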
Vero [34] = experiment: cells; type: functional, cell-based; conditions: Chlorocebus sabaeus
BJ [35] = experiment: cytotoxicity toward BJ-TERT fibroblasts, dose response, cell-based, RAS-independent, luminescence (AID 1933); type: functional; conditions: Homo sapiens
[36] = PAX5 activity inhibitors, dose response, selectivity assay for PAX8 inhibitor project, cell-based, plate reader, dry powder samples (AID 743047); type: functional;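 note: HEK293 cells carrying a Pax5 driven CD19 promoter luciferase reporter; potency of inhibitors that lower reporter luminescence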
BJ [37] = experiment: cytotoxicity toward Ras-transformed BJeLR fibroblasts, dose response, cell-based, alamar blue fluorescence, cherrypicked samples (AID 2631); type: functional; conditions: Homo sapiens;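 note: confirmatory dose-response assay in RAS-dependent BJ fibroblasts engineered with TERT, LT and ST, with cytotoxicity read by fluorescence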
[38] = target: Protein disulfide-isomerase (Homo sapiens, UniProt P07237); experiment: PDI inhibitors, insulin aggregation turbidity, dose response, biochemical, absorbance, cherry-picked samples (AID 602350); type: functional
[39] = target: T1, Heat shock factor protein 1 (Mus musculus, UniProt P38532); experiment: HSF1 potentiators in luciferase reporter cells, confirmation, cell-based, NIH3T3, luminescence, dose retest (AID 435004); type: functional;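 note: stress induced by proteasome inhibitor MG132 added 30 min after compound; luciferase reporter driven by HSF1 response element in NIH3T3 cells; actives raise luminescence as potentiators of the MG132 stress response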
T1 sequence (P38532 whole entry): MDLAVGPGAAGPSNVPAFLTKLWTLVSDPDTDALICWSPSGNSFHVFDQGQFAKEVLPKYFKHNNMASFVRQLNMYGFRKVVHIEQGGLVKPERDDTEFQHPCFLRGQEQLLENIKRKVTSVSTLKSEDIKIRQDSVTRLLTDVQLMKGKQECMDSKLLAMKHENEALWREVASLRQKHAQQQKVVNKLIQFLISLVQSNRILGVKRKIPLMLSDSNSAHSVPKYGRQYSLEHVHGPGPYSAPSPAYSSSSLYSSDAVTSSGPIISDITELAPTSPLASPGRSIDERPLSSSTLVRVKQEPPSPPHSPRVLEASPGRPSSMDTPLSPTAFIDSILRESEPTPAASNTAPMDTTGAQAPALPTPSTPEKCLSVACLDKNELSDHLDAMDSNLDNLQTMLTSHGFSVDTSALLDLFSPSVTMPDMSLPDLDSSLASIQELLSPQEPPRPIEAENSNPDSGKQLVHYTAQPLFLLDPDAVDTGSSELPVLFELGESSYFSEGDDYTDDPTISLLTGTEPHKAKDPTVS

BJ [40] = experiment: cytotoxicity toward BJ-TERT-LT-ST fibroblasts, dose response, cell-based, RAS-independent, luminescence (AID 1935); type: functional; conditions: Homo sapiens;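 note: BJ fibroblasts immortalized with TERT plus LT and ST oncogenes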
Vero [41] = experiment: cells; type: functional; conditions: Chlorocebus sabaeus
[42] = HEK293T cell cytotoxicity, dose response, cytotoxicity control for HIV Vif inhibitor project, cherry-picks (AID 652208); type: functional, cell-based
[43] = IOSE-T80 ovarian epithelial cell cytotoxicity, dose response, cytotoxicity control for PAX8 inhibitor project, plate reader, dry powder samples (AID 743045); type: functional, cell-based
[44] = inhibitors of SNCA 5'UTR-driven reporter translation, confirmation, H4 neuroglioma cells, luminescence (AID 1988); type: functional, cell-based
[45] = cytotoxicity toward DRD oncogenic fibroblasts, dose response, cell-based, non-viral oncogenic, luminescence (AID 1934); type: functional; conditions: Homo sapiens
[46] = A2780 ovarian cancer cell cytotoxicity, dose response, cytotoxicity control, plate reader, dry powder samples (AID 743046); type: functional, cell-based
[47] = Luminescence Cell-Based Dose Response HTS to Identify Inhibitors of 5'UTR Stem-Loop Driven Prion Protein mRNA Translation in H4 Neuroglioblastoma Cells. [Related pubchem assays: 1827 (Project Summary), 1813 (Primary HTS)]; type: functional
[48] = cytotoxicity in OVCAR4 cells, dose response, cytotoxicity control for PAX8 inhibitor project, cell-based, plate reader, dry powder, SA11 (AID 743150); type: functional; conditions: OVCAR-4
[49] = cytotoxicity in COV362 ovarian cancer cells, dose response, cytotoxicity control for PAX8 inhibitor project, cell-based, plate reader, dry powder, SA12 (AID 743144); type: functional
[50] = IGROV1 ovarian cancer cell cytotoxicity, dose response, PAX8 inhibitor project, plate reader, dry powder samples (AID 743043); type: functional, cell-based; conditions: IGROV-1
[51] = Fluorescence-based cell-based high throughput dose response assay for inhibitors of the interaction of nucleotide-binding oligomerization domain containing 2 (NOD2) and the receptor-interacting serine-threonine kinase 2 (RIPK2).; type: functional; conditions: Homo sapiens
[52] = cytotoxicity in OV-90 ovarian cancer cells, dose response, PAX8 inhibitor project, cell-based, plate reader, dry powder, SA8 (AID 743149); type: functional
[53] = cytotoxicity dependent on PAX8, dose response, cell-based, plate reader, dry powder (AID 743049); type: functional
[54] = NIH:OVCAR-3 ovarian cancer cell cytotoxicity, dose response, PAX8 inhibitor project, plate reader, dry powder samples (AID 743044); type: functional, cell-based

LIM domain kinase 1, sequence (P53667 whole entry, the tested form may be a part): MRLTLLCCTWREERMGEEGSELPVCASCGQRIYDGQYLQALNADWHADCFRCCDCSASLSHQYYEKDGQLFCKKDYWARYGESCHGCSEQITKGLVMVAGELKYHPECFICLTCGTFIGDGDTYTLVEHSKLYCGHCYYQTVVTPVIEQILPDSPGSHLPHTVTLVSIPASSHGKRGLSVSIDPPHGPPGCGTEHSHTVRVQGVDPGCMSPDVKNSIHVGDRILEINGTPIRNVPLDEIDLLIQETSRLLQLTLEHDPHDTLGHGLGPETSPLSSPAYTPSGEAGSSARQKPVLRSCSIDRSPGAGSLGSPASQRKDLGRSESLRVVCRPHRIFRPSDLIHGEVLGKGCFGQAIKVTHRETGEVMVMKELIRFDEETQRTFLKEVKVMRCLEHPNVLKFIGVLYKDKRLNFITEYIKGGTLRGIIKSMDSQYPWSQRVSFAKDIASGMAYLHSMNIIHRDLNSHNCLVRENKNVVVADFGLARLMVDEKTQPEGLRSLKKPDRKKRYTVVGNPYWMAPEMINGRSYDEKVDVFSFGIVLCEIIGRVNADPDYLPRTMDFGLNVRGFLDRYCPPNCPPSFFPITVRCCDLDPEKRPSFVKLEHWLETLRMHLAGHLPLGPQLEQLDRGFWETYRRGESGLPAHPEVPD
Cyclin-dependent kinase 5, sequence (Q00535 whole entry): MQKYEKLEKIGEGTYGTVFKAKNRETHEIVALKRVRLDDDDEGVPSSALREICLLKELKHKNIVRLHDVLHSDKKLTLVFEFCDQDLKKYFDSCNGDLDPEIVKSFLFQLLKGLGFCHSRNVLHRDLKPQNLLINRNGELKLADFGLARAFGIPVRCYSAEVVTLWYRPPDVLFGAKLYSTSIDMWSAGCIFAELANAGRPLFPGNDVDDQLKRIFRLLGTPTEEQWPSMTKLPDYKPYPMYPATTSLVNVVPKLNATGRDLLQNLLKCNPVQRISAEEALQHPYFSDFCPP
Platelet-derived growth factor receptor alpha, sequence (P16234 whole entry): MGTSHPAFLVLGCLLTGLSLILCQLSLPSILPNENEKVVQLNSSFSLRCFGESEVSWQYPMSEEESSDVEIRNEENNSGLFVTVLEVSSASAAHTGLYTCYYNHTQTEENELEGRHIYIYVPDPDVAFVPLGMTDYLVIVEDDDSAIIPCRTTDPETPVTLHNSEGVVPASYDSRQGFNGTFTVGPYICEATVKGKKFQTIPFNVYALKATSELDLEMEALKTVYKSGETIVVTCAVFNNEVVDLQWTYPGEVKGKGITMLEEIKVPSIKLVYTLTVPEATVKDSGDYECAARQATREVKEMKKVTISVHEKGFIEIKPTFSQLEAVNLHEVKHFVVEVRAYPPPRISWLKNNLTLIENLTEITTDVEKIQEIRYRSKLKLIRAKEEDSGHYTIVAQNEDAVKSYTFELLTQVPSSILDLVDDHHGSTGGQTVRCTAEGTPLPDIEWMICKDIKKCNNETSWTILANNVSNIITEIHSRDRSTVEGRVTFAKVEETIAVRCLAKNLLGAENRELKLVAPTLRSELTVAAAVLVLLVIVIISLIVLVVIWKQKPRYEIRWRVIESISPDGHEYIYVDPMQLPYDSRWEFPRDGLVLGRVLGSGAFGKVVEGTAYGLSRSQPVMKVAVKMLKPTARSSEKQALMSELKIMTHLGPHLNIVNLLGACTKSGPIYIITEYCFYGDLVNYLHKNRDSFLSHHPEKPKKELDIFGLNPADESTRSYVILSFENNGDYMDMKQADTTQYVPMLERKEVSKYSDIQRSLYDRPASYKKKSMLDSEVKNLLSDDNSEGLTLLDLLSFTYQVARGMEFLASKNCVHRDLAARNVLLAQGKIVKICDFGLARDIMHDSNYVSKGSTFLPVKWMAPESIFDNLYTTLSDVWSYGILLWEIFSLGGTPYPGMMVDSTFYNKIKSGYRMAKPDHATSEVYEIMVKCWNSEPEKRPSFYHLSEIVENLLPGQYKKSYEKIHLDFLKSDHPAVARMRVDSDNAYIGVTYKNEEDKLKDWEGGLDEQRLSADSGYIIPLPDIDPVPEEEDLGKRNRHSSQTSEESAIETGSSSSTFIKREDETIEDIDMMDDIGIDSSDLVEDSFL
Protein disulfide-isomerase, sequence (P07237 whole entry): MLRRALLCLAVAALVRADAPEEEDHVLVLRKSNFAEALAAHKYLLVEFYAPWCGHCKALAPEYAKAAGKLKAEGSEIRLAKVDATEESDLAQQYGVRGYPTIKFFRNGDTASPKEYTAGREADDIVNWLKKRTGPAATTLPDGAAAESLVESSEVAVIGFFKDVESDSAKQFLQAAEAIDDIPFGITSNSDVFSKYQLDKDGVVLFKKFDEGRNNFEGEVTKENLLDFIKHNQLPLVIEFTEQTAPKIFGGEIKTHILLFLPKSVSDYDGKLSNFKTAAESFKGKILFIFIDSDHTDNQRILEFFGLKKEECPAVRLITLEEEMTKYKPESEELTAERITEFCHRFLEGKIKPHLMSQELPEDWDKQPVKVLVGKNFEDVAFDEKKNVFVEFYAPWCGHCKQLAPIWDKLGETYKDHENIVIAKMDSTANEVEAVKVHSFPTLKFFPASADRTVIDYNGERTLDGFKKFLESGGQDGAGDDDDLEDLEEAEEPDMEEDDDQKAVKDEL
5'-AMP-activated protein kinase catalytic subunit alpha-1, sequence (Q13131 whole entry): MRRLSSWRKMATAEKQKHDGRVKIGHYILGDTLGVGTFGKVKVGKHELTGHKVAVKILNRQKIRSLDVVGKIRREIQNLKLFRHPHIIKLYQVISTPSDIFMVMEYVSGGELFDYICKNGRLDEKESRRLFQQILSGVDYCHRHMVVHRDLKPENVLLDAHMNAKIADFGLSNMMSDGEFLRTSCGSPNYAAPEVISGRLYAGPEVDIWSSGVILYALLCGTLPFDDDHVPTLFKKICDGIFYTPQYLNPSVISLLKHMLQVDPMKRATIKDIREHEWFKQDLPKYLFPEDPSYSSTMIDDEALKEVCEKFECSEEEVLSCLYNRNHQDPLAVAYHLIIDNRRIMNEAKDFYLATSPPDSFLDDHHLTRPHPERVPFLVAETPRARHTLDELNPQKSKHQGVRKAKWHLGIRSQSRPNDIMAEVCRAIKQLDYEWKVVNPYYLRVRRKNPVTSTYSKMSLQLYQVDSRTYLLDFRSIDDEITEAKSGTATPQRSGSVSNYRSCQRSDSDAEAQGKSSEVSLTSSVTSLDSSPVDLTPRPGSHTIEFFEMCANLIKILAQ
Receptor-type tyrosine-protein kinase FLT3, sequence (P36888 whole entry): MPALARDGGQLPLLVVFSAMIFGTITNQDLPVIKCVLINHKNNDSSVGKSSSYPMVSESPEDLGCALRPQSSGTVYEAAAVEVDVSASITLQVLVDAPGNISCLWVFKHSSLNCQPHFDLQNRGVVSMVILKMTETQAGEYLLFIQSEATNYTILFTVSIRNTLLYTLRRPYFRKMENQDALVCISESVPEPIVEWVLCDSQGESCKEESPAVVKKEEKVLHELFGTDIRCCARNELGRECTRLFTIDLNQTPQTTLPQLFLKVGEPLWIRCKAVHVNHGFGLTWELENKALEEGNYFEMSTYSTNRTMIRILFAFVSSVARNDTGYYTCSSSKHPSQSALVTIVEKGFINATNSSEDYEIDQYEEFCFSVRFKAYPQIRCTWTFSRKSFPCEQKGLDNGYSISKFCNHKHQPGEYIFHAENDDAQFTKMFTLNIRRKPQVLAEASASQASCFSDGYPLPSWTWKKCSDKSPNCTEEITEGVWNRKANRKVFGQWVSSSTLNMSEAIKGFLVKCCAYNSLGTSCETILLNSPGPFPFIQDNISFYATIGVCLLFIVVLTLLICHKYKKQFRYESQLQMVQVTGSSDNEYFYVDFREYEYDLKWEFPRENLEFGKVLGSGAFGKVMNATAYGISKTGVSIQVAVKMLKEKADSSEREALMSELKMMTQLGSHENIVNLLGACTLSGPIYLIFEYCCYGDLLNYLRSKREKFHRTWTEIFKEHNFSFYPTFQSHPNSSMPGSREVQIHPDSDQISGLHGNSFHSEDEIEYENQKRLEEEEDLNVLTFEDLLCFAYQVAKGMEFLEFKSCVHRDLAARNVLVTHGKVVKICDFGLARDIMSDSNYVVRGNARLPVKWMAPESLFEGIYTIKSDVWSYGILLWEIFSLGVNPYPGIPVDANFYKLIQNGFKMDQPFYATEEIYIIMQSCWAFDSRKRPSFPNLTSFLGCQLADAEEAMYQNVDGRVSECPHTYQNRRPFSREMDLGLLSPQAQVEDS
Serine/threonine-protein kinase BRSK1, sequence (Q8TDC3 whole entry): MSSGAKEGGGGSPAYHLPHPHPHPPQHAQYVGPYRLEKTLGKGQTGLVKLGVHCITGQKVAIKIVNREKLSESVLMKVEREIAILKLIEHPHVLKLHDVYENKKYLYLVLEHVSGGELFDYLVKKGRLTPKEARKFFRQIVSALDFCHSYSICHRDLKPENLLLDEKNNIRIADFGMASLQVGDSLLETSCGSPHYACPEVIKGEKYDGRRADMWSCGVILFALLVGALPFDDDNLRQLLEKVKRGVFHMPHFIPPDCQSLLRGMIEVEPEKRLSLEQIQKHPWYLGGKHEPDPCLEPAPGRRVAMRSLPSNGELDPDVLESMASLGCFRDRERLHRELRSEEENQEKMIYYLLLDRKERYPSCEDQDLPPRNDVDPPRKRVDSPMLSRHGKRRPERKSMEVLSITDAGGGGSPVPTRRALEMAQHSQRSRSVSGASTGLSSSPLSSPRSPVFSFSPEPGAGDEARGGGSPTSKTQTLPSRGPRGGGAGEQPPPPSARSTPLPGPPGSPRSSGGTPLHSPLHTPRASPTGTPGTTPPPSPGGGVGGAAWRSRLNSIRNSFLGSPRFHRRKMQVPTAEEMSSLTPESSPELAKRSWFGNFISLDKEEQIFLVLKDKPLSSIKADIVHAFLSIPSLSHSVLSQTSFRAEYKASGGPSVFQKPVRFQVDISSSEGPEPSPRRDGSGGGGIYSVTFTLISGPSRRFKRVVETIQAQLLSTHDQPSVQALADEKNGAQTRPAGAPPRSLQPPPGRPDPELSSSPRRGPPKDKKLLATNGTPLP

O=C1C(Cc2ccccc2)Nc2ncnc(N3CCN(c4ccccc4)CC3)c2N1Cc1ccc(Br)cc1 (configuration not stated)
EC50 [1]: 10.8 µM (active)
IC50 (Beta-galactosidase): 2.54 µM (active)
EC50 [2]: 21.2 µM (active)
EC50 [3]: 11.1 µM (active)

NC(=O)c1cccc2[nH]c(-c3cccc(NCCN4CCCC4)n3)nc12
Ki [4]: > 10 µM (inactive)
Ki [5]: 2 µM (active)
Ki [6]: 1 µM (active)
Ki (LIM domain kinase 1): > 10 µM (inactive)
Ki [7]: > 10 µM (inactive)
Ki [8]: 1.26 µM (active)
Ki [9]: > 10 µM (inactive)
Ki (Aurora kinase B): 1.26 µM (active)
Ki [10]: 5.01 µM (active)
Ki [11]: 2.51 µM (active)
Ki [12]: > 10 µM (inactive)
Ki [13]: > 10 µM (inactive)

Cc1cc(=O)[nH]c2[nH]n(-c3ccccc3)c(=O)c12
Ki [14]: 63.1 µM (active)
Ki [15]: 39.8 µM (active)
Ki [16]: 20 µM (active)
Ki [17]: 50.1 µM (active)
Ki [18]: 50.1 µM (active)
Ki (LIM domain kinase 1): 12.6 µM (active)
Ki [19]: 50.1 µM (active)
Ki (Activin receptor type-1): 79.4 µM (active)
Ki [20]: 79.4 µM (active)
Ki [21]: 10 µM (active)
Ki [22]: 39.8 µM (active)
Ki [23]: 50.1 µM (active)
Ki [24]: 63.1 µM (active)
Ki [25]: 39.8 µM (active)
Ki [26]: 100 µM (active)
Ki [27]: 50.1 µM (active)
Ki (Aurora kinase A): 50.1 µM (active)
Ki [28]: 12.6 µM (active)
Ki [29]: 20 µM (active)

COc1ccc(/C=C2\CN(Cc3ccccc3)C/C(=C\c3ccc(OC)c(O)c3)C2=O)cc1O
AC50 (Paired box protein Pax-8): 4.63 µM (active)
AC50 [30]: 4.16 µM (active)
EC50 [31]: 8.62 µM (inconclusive)
AC50 (INS1): 4.23 µM (active)
EC50 (BJ [32]): 4.4 µM (active)
AC50 [33]: 14.2 µM (active)
IC50 (Vero [34]): 23.2 µM (active)
EC50 (BJ [35]): 2.04 µM (active)
AC50 [36]: 14.3 µM (active)
EC50 (BJ [37]): 0.435 µM (active)
AC50 [38]: 2.98 µM (active)
EC50 [39]: 8.35 µM (active)
EC50 (BJ [40]): 2.23 µM (active)
CC50 (Vero [41]): 2.75 µM (active)
AC50 [42]: 5.24 µM (active)
AC50 [43]: 8.94 µM (active)
EC50 [44]: 9.23 µM (inconclusive)
EC50 [45]: 2.65 µM (active)
AC50 [46]: 12.5 µM (active)
EC50 [47]: > 120 µM (not active)
AC50 [48]: 4.93 µM (active)
AC50 [49]: 4.34 µM (active)
AC50 [50]: 21.6 µM (active)
IC50 [51]: 5.53 µM (active)
AC50 [52]: 3.79 µM (active)
AC50 [53]: 9.32 µM (active)
AC50 [54]: 7.31 µM (active)
